Test results as given in PubChem BioAssay (NCI).
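The compound was tested at five concentrations on cells cultured in 96-well plates, with a 48-hour exposure period. TGI denotes the concentration required for complete inhibition of growth.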

What was measured:
Experiment in all cases: growth of human tumour cells (NCI), 48 h
[1] = system: TK-10 renal
[2] = system: SNB-75 CNS
[3] = system: NCI-H460 lung
[4] = system: UACC-62 melanoma
[5] = system: HT29 colon
[6] = system: EKVX NSCLC
[7] = system: SK-MEL-2 melanoma
[8] = system: SF-268 CNS
[9] = system: MDA-MB-231 breast
[10] = system: MOLT-4 leukemia
[11] = system: HCC-2998 colon
[12] = system: U251 CNS
[13] = system: OVCAR-3 ovarian
[14] = system: HOP-62 NSCLC
[15] = system: NCI-H522 lung
[16] = system: SK-MEL-5 melanoma
[17] = system: ACHN renal
[18] = system: SW-620 colon
[19] = system: HCT-116 colon
[20] = system: NCI-H226 lung
[21] = system: OVCAR-5 ovarian
[22] = system: SK-MEL-28 melanoma
[23] = system: OVCAR-4 ovarian
[24] = system: SR leukemia
[25] = system: MALME-3M melanoma
[26] = system: PC-3 prostate
[27] = system: DU-145 prostate
[28] = system: MDA-N
[29] = system: K-562 leukemia
[30] = system: T-47D breast
[31] = system: UACC-257 melanoma
[32] = system: KM12 colon
[33] = system: CAKI-1 renal
[34] = system: IGROV1 ovarian
[35] = system: NCI-H23 lung
[36] = system: RPMI-8226 leukemia
[37] = system: UO-31 renal
[38] = system: 786-0 renal
[39] = system: CCRF-CEM leukemia
[40] = system: HCT-15 colon
[41] = system: HS 578T breast
[42] = system: OVCAR-8 ovarian
[43] = system: M14 melanoma
[44] = system: MDA-MB-435
[45] = system: BT-549 breast
[46] = system: MCF7 breast
[47] = system: SF-295 CNS
[48] = system: HOP-92 NSCLC
[49] = system: A549 NSCLC
[50] = system: COLO 205 colon
[51] = system: NCI/ADR-RES ovarian
[52] = system: SK-OV-3 ovarian
[53] = system: SF-539 CNS
[54] = system: RXF 393 renal
[55] = system: SNB-19 CNS
[56] = system: A498 renal
[57] = system: SN12C renal
[58] = system: LOX IMVI melanoma
[59] = system: HL-60(TB) leukemia

SMILES: COC(=O)c1cc(=O)n(-c2ccc3nn(C)nc3c2)cc1C(=O)OC
- TGI [1]: > 100 µM
- TGI [2]: > 100 µM
- TGI [3]: > 100 µM
- TGI [4]: > 100 µM
- TGI [5]: > 100 µM
- TGI [6]: > 100 µM
- TGI [7]: > 100 µM
- TGI [8]: > 100 µM
- TGI [9]: > 100 µM
- TGI [10]: > 100 µM
- TGI [11]: > 100 µM
- TGI [12]: > 100 µM
- TGI [13]: > 100 µM
- TGI [14]: > 100 µM
- TGI [15]: > 100 µM
- TGI [16]: > 100 µM
- TGI [17]: > 100 µM
- TGI [18]: > 100 µM
- TGI [19]: > 100 µM
- TGI [20]: > 100 µM
- TGI [21]: > 100 µM
- TGI [22]: > 100 µM
- TGI [23]: > 100 µM
- TGI [24]: > 100 µM
- TGI [25]: > 100 µM
- TGI [26]: > 100 µM
- TGI [27]: > 100 µM
- TGI [28]: > 100 µM
- TGI [29]: > 100 µM
- TGI [30]: > 100 µM
- TGI [31]: > 100 µM
- TGI [32]: > 100 µM
- TGI [33]: > 100 µM
- TGI [34]: > 100 µM
- TGI [35]: > 100 µM
- TGI [36]: > 100 µM
- TGI [37]: > 100 µM
- TGI [38]: > 100 µM
- TGI [39]: > 100 µM
- TGI [40]: > 100 µM
- TGI [41]: > 100 µM
- TGI [42]: > 100 µM
- TGI [43]: > 100 µM
- TGI [44]: > 100 µM
- TGI [45]: > 100 µM
- TGI [46]: > 100 µM
- TGI [47]: > 100 µM
- TGI [48]: > 100 µM
- TGI [49]: > 100 µM
- TGI [50]: > 100 µM
- TGI [51]: > 100 µM
- TGI [52]: > 100 µM
- TGI [53]: > 100 µM
- TGI [54]: > 100 µM
- TGI [55]: > 100 µM
- TGI [56]: > 100 µM
- TGI [57]: > 100 µM

SMILES: COc1ccc2c(C)c(Oc3c(Cl)c(Cl)c(O)c(C#N)c3C#N)oc2c1
- TGI [1]: > 100 µM
- TGI [2]: > 100 µM
- TGI [3]: > 100 µM
- TGI [4]: > 100 µM
- TGI [5]: > 100 µM
- TGI [6]: > 100 µM
- TGI [7]: > 100 µM
- TGI [8]: > 100 µM
- TGI [9]: > 100 µM
- TGI [10]: > 100 µM
- TGI [11]: > 100 µM
- TGI [12]: > 100 µM
- TGI [13]: > 100 µM
- TGI [58]: > 100 µM
- TGI [14]: > 100 µM
- TGI [15]: > 100 µM
- TGI [16]: > 100 µM
- TGI [17]: > 100 µM
- TGI [18]: > 100 µM
- TGI [19]: > 100 µM
- TGI [20]: > 100 µM
- TGI [21]: > 100 µM
- TGI [22]: > 100 µM
- TGI [59]: > 100 µM
- TGI [23]: > 100 µM
- TGI [24]: > 100 µM
- TGI [25]: > 100 µM
- TGI [26]: > 100 µM
- TGI [27]: > 100 µM
- TGI [28]: > 100 µM
- TGI [29]: > 100 µM
- TGI [30]: > 100 µM
- TGI [31]: > 100 µM
- TGI [32]: > 100 µM
- TGI [33]: > 100 µM
- TGI [34]: > 100 µM
- TGI [35]: > 100 µM
- TGI [36]: > 100 µM
- TGI [37]: > 100 µM
- TGI [38]: > 100 µM
- TGI [39]: > 100 µM
- TGI [40]: > 100 µM
- TGI [41]: > 100 µM
- TGI [42]: > 100 µM
- TGI [43]: > 100 µM
- TGI [44]: > 100 µM
- TGI [45]: > 100 µM
- TGI [46]: > 100 µM
- TGI [47]: > 100 µM
- TGI [49]: > 100 µM
- TGI [50]: > 100 µM
- TGI [51]: > 100 µM
- TGI [52]: > 100 µM
- TGI [53]: > 100 µM
- TGI [55]: > 100 µM
- TGI [56]: > 100 µM
- TGI [57]: > 100 µM

SMILES: Cc1c2c(nc3ccccc13)C(=O)c1cccnc1C2=O
- TGI [1]: > 100 µM
- TGI [2]: 91.7 µM
- TGI [3]: 13.1 µM
- TGI [4]: 10.1 µM
- TGI [5]: 54.2 µM
- TGI [6]: 88 µM
- TGI [8]: > 100 µM
- TGI [9]: > 100 µM
- TGI [10]: 64.7 µM
- TGI [11]: > 100 µM
- TGI [12]: > 100 µM
- TGI [13]: 43.9 µM
- TGI [58]: 35.2 µM
- TGI [14]: > 100 µM
- TGI [15]: 47.8 µM
- TGI [16]: 1.48 µM
- TGI [17]: > 100 µM
- TGI [18]: > 100 µM
- TGI [19]: 18.8 µM
- TGI [20]: > 100 µM
- TGI [21]: > 100 µM
- TGI [22]: 94.7 µM
- TGI [59]: 41.4 µM
- TGI [23]: > 100 µM
- TGI [24]: 65.6 µM
- TGI [25]: 3.56 µM
- TGI [26]: 73.1 µM
- TGI [27]: > 100 µM
- TGI [28]: 3.16 µM
- TGI [29]: > 100 µM
- TGI [30]: 87.8 µM
- TGI [31]: 27.2 µM
- TGI [32]: > 100 µM
- TGI [34]: > 100 µM
- TGI [35]: 73.1 µM
- TGI [36]: > 100 µM
- TGI [37]: > 100 µM
- TGI [38]: > 100 µM
- TGI [39]: > 100 µM
- TGI [40]: > 100 µM
- TGI [41]: > 100 µM
- TGI [42]: 77.9 µM
- TGI [43]: 48.8 µM
- TGI [44]: 3.2 µM
- TGI [45]: > 100 µM
- TGI [46]: 30.1 µM
- TGI [47]: 97.1 µM
- TGI [48]: > 100 µM
- TGI [49]: 21.7 µM
- TGI [50]: 48.7 µM
- TGI [51]: > 100 µM
- TGI [52]: > 100 µM
- TGI [53]: 54.2 µM
- TGI [54]: > 100 µM
- TGI [55]: 92.3 µM
- TGI [57]: > 100 µM
